The subject of data set [1] is Human monocyte cell line THP-1. Put plainly: Detection of THP-1 cell pyroptosis (Caspase-Glo 1 Inflammasome Assay). Type of data set: cell-based. Particulars: 20 nM PMA 48 h, 1 μg/mL LPS, compound 3 h. In short, it runs like this: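 Differentiated with 20 nM PMA for 48 h (50,000 cells/well), then given serum-free medium with 1 μg/mL LPS and compound in a 10-point, 3-fold series from 10 μM for 3 h at 37 °C. Caspase-1 activity read with Caspase-Glo 1 Inflammasome kit; IC50 calculated.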

A short description of data set [2]: Pharmacokinetic analysis of compounds in rats. In kind it is in vivo, SD rats. Particulars: for F %: po 10 mg/kg vs iv 1 mg/kg. How it is done: Healthy adult SD rats weighing 180-220 g were fasted (free access to water) overnight and divided into tail vein administration group and intragastric administration group. The tail vein administration group was subjected to blood collection of 0.1 mL from orbital venous plexus before the administration and 5 min, 15 min, 0.5 h, 1 h, 2 h, 4 h, 8 h, 12 h and 24 h after the administration, and plasma was separated out by centrifugation at 4° C. for 5 min and stored at −20° C. for test. The intragastric administration group was subjected to blood collection of 0.1 mL from orbital venous plexus before the administration and 5 min, 15 min, 0.5 h, 1 h, 2 h, 4 h, 8 h, 12 h and 24 h after the administration, and the subsequent treatment procedures were the same as those of the tail vein injection group. The concentration of parent drug in the plasma was determined by LC-MS/MS.

The test system of data set [3] is Rat dorsal air pouch models. The data set is described as follows: Rat dorsal air pouch pharmacodynamic models (sodium urate). The conditions noted are these: air pouch exudate 5 h after 1% sodium urate; for IL-1β concentration in exudate: ELISA. Type of data set: in vivo, SD rats. How it is done:
Healthy adult male SD rats weighing 180-220 g were purchased, and rat dorsal air pouch models were constructed after adaptive feeding of the rats. On day 1, day 4 and day 7 of modeling, 20 mL of sterile air was injected subcutaneously into the back of rats by means of injection needles, and the air pouch was maintained at an inflated state. On day 8, 50 mg/kg compound or vehicle control was administered intragastrically. 5 mL of 1% sodium urate suspension was injected into the dorsal air pouch, and air pouch exudate was collected 5 h later. 40 μL of the exudate was taken for leukocyte counting. The remaining exudate was centrifuged at 1500 rpm for 20 min, and the supernatant was collected to detect the expression level of IL-1β by ELISA (BD, Human IL-1β ELISA Set II, Cat #557953).
Background: ELISA stands for enzyme-linked immunosorbent assay.

The test system of data set [4] is IL-1β release in human PBMCs. The data set is described as follows: Assay of IL-1β release in human PBMCs. Type of data set: cell-based. The conditions noted are these: 10 ng/mL LPS 3 h, compound 0.5 h, 5 mM ATP 1 h, ELISA. As for the experimental part:
5 mL of human venous whole blood from a healthy donor was placed in a Li-heparin tube. PBMCs were isolated and incubated in a culture medium containing 10 ng/mL LPS at 37° C./5% CO2 for 3 h. Cells were plated in a 96-well plate at 50 μL per well. 25 μL of compound or solvent control was added to each well and 3-fold diluted in gradient from a maximum concentration of 10 μM, and 8 gradient concentrations were set. The mixtures were incubated for 0.5 h. 25 μL of ATP at a final concentration of 5 mM was added to each well, and the resulting mixtures were incubated for 1 h. After the incubation, the mixtures were centrifuged at 1500 rpm for 20 min, and the supernatant was collected to detect the expression level of […] by ELISA (BD, Human IL-1β ELISA Set II, Cat #557953). IC50 was calculated using GraphPad Prism7.0 software. The results are shown in Table 2, which indicate that: the compounds disclosed herein down-regulate release of mature IL-1β by inhibiting the activity of Caspase-1, and the IC50 is <50 nM.

The mark [5] stands for this setting: SD rats, iv (tail vein), 1 mg/kg, plasma.
Where [6] appears, read: SD rats, po (intragastric), 10 mg/kg, plasma.
The mark [7] stands for this setting: Homo sapiens, THP-1, THP-1 pyroptosis.

A value given as a limit tells only on which side of the number the result lay.

As to `C[C@@H](c1ccc2c(c1NC(=O)NS(=N)(=O)c1cc(C(C)(C)O)co1)CCC2)C1CC1` (mixture of isomers) [Compound 6-1, (RS, RC)- and (SS, RC)-N-((5-(-1-cyclopropylethyl)-2,3-dihydro-1H-inden-4-yl)carbamoyl)-4-(2-hydroxypropan-2-yl)furan-2-sulfonimidamide], the IC50 in data set [1] (THP-1 pyroptosis) is at most 100 nM. For the same compound, in data set [2] (setting [5]), the “AUC” value came out at 6312 ng·h/mL, the “Cl” value was 2.7 mL/min/kg, the “Vss” value is 0.26 L/kg and the “t1/2” value was found to be 1.6 h. The F % in data set [2] (SD rats) turned out to be 65.8%. For the same compound, in data set [2] (setting [6]), the “AUC” value was 41521 ng·h/mL, the “Cmax” value amounted to 13900 ng/mL and the “t1/2” value amounted to 2.5 h. Moreover, in data set [3] (50 mg/kg intragastric), the “Leukocyte concentration (10^6/mL)” value was 1.99 ± 0.4 10^6/mL and the “IL-1β concentration in exudate” value stood at 895.7 ± 266.4 pg/mL.
For `CC(c1ccc2c(c1NC(=O)NS(=N)(=O)c1cc(C(C)(C)O)co1)CCC2)C1CC1` (racemic) [Compound 8-1, (RS, SC)- and (SS, SC)-N-((5-(1-cyclopropylethyl)-2,3-dihydro-1H-inden-4-yl)carbamoyl)-4-(2-hydroxypropan-2-yl)furan-2-sulfonimidamide], the half-inhibitory concentration (IC50) in data set [4] turned out to be 26.3 nM. Moreover, the IC50 in data set [1] (THP-1 pyroptosis) is at most 100 nM. In data set [2] (setting [5]), the “AUC” value worked out at 2557 ng·h/mL, the “Cl” value came out at 6.8 mL/min/kg, the “Vss” value was 0.296 L/kg and the “t1/2” value is recorded as 0.74 h. Also, the F % in data set [2] (SD rats) turned out to be 56.2%. For the same compound, in data set [2] (setting [6]), the “AUC” value is 14367 ng·h/mL, the “Cmax” value amounted to 6397 ng/mL and the “t1/2” value is on record as 2.4 h. For the same compound, in data set [3] (50 mg/kg intragastric), the “Leukocyte concentration (10^6/mL)” value is listed as 2.25 ± 0.5 10^6/mL and the “IL-1β concentration in exudate” value came to 1522.5 ± 313.2 pg/mL.
In the case of `C[C@@H](c1cc(F)c2c(c1NC(=O)N[S@@](=N)(=O)c1cc(C(C)(C)O)co1)CCC2)C1CC1` (single isomer, unassigned) [Compound 42-2], in data set [4] (PBMC), inhibition was half-maximal at 3.2 nM (IC50). This compound showed an IC50 in data set [1] (setting [7]) of at most 100 nM. In data set [2] (SD, rat, in vivo, iv, 1 mg/kg), this compound gave an AUC of 1980 ng·h/mL, a Vd of 0.503 L/kg, a clearance of 8.6 mL/min/kg and a half-life of 0.79 h. In addition, the bioavailability in data set [2] (SD, rat, in vivo, po) is 87.2%. In data set [2] (SD, rat, in vivo, po, 10 mg/kg), this compound showed an AUC of 17300 ng·h/mL, a Cmax of 8500 ng/mL and a half-life of 2.1 h.
The compound `C[C@H](c1cc(F)c2c(c1NC(=O)N[S@@](=N)(=O)c1cc(C(C)(C)O)co1)CCC2)C1CC1` (single isomer, unassigned) [Compound 44-2] registered an IC50 in data set [4] (PBMC) of 16.3 nM. In data set [1] (setting [7]), this compound returned an IC50 of at most 100 nM. In data set [2] (SD, rat, in vivo, iv, 1 mg/kg), this compound had an AUC of 1620 ng·h/mL, a Vd of 0.537 L/kg, a clearance of 10.5 mL/min/kg and a half-life of 0.93 h. Moreover, the bioavailability in data set [2] (SD, rat, in vivo, po) was found to be 89.1%. In data set [2] (SD, rat, in vivo, po, 10 mg/kg), this compound showed an AUC of 14500 ng·h/mL, a Cmax of 6380 ng/mL and a half-life of 2.4 h.
Consider `COc1cc2c(c(OC)c1OC)-c1ccc(OC)c(=O)cc1[C@@H](NC(C)=O)CC2` [Colchicine, reference compound], for which, in data set [3] (30 mg/kg), the “Leukocyte concentration (10^6/mL)” value is reported as 3.40 ± 0.7 10^6/mL and the “IL-1β concentration in exudate” value is recorded as 1190.9 ± 463.6 pg/mL.
With `C[C@H](c1ccc2c(c1NC(=O)NS(=O)(=O)c1cc(C(C)(C)O)co1)CCC2)C1CC1` [Compound 7, (S)-N-((5-(1-cyclopropylethyl)-2,3-dihydro-1H-inden-4-yl)carbamoyl)-4-(2-hydroxypropan-2-yl)furan-2-sulfonamide], the IC50 in data set [4] (PBMC) is 41.1 nM; in data set [1] (setting [7]), at most 100 nM.
`Cc1oc(S(=N)(=O)NC(=O)Nc2c(CC3CCC3)ccc3c2CCC3)cc1C(C)(C)O` (centres unmarked) [Compound 21-1, RS- and SS-N-((5-(cyclobutylmethyl)-2,3-dihydro-1H-inden-4-yl)carbamoyl)-4-(2-hydroxypropan-2-yl)-5-methylfuran-2-sulfonimidamide] displayed an IC50 in data set [4] of 26.2 nM. This compound also showed an IC50 in data set [1] (THP-1 pyroptosis) of at most 100 nM. In data set [2] (rat, in vivo, iv, 1 mg/kg), the “AUC” value worked out at 2404 ng·h/mL, the “Cl” value came to 7.4 mL/min/kg, the “Vss” value stood at 0.371 L/kg and the “t1/2” value was 0.65 h. Moreover, in data set [2] (rat, in vivo, po, 10 mg/kg), the “AUC” value worked out at 37246 ng·h/mL, the “Cmax” value turned out to be 12717 ng/mL and the “t1/2” value stood at 2.3 h.
In the case of `Cc1oc(S(=O)(=O)NC(=O)Nc2c([C@@H](C)C3CC3)ccc3c2CCC3)cc1C(C)(C)O` [Compound 23, (S)-N-((5-(1-cyclopropylethyl)-2,3-dihydro-1H-inden-4-yl)carbamoyl)-4-(2-hydroxypropan-2-yl)-5-methylfuran-2-sulfonamide], the IC50 was 5 nM in data set [4] (PBMC) and 100 to 500 nM in data set [1] (setting [7]).
On the same counts, the results for `[2H]c1cc([C@H](C)C2CC2)c(NC(=O)NS(=O)(=O)c2cc(C(C)(C)O)co2)c2c1CCC2` [Compound 29, (R)-N-((5-(1-cyclopropylethyl)-2,3-dihydro-1H-inden-4-yl-7-d)carbamoyl)-4-(2-hydroxypropan-2-yl)furan-2-sulfonamide] are 18.5 nM and 100 to 500 nM.
For `C[C@@H](c1cc(F)c2c(c1NC(=O)NS(=O)(=O)c1cc(C(C)(C)O)co1)CCC2)C1CC1` [Compound 41, (R)-N-((5-(1-cyclopropylethyl)-7-fluoro-2,3-dihydro-1H-inden-4-yl)carbamoyl)-4-(2-hydroxypropan-2-yl)furan-2-sulfonamide], in that order: 5 nM and at most 100 nM.
For `C[C@H](c1cc(F)c2c(c1NC(=O)NS(=O)(=O)c1cc(C(C)(C)O)co1)CCC2)C1CC1` [Compound 43, (S)-N-((5-(1-cyclopropylethyl)-7-fluoro-2,3-dihydro-1H-inden-4-yl)carbamoyl)-4-(2-hydroxypropan-2-yl)furan-2-sulfonamide], the IC50 is 11.6 nM in data set [4] (PBMC) and 500 to 1000 nM in data set [1] (setting [7]).
For `C[C@@H](c1ccc2c(c1NC(=O)NS(=O)(=O)c1cnc(C(C)(C)O)s1)CCC2)C1CC1` [Compound 87, (R)-N-((5-(1-cyclopropylethyl)-2,3-dihydro-1H-inden-4-yl)carbamoyl)-2-(2-hydroxypropan-2-yl)thiazole-5-sulfonamide], in that order: 40.4 nM and at most 100 nM.
“(RS, RC)- and (SS, RC)-N-((5-(1-cyclopropylethyl)-2,3-dihydro-1H-inden-4-yl-7-d)carbamoyl)-4-(2-hydroxypropan-2-yl)furan-2-sulfonimidamide [Compound 31-2]”: the IC50 in data set [4] was 25 nM; in data set [1] (THP-1 pyroptosis), at most 100 nM.
In the case of “(RS, SC)- and (SS, SC)-N-((5-(1-cyclobutylethyl)-2,3-dihydro-1H-inden-4-yl)carbamoyl)-4-(2-hydroxypropan-2-yl)furan-2-sulfonimidamide [Compound 82-1]”, the IC50 in data set [4] was found to be 5.2 nM. This compound returned an IC50 in data set [1] (THP-1 pyroptosis) of 100 to 500 nM. In data set [2] (setting [5]), the “AUC” value stood at 2228 ng·h/mL, the “Cl” value stood at 11.2 mL/min/kg, the “Vss” value amounted to 0.379 L/kg and the “t1/2” value was 0.70 h. In data set [2] (SD rats), this compound registered a F % of 74.0%. In data set [2] (setting [6]), the “AUC” value turned out to be 16478 ng·h/mL, the “Cmax” value was 5883 ng/mL and the “t1/2” value is 2.3 h.
Turning to “RS- and SS-N-((5-(cyclobutylmethyl)-2,3-dihydro-1H-inden-4-yl-7-d)carbamoyl)-4-(2-hydroxypropan-2-yl)furan-2-sulfonimidamide [Compound 39-1]”, the IC50 was 31.7 nM in data set [4] and at most 100 nM in data set [1] (THP-1 pyroptosis).

As usually defined, the IC50 is the point on the concentration scale where inhibition reaches its midpoint. Lower therefore signals greater potency. Broadly, the AUC is concentration integrated over time. A higher AUC goes with more exposure. By Vss is commonly meant the apparent volume that relates the amount in the body to the concentration in plasma or blood. High values mean wide distribution into tissue, low ones little distribution into tissue. By Cmax is commonly meant the peak of the concentration-time curve. The term Vd denotes the apparent volume that relates the amount in the body to the concentration in plasma or blood. A high value points to extensive tissue distribution. By clearance is commonly meant the rate of elimination divided by the concentration. A low value points to a low capacity for elimination. What is called half-life is how long it takes for the measured level to halve. Read a low half-life as rapid decline. By bioavailability is commonly meant dose-corrected exposure relative to a reference, in per cent. Low values mean poor availability, high ones good availability.
